Measured values published in ChEMBL document CHEMBL6134780, “Halogenated retinoid derivatives as dual RARα and RXRα modulators for treating acute promyelocytic leukemia cells” (Eur J Med Chem, 2024).
Active and inactive are the calls of the source. No cut-off for these calls is given here.

Experiments:
[1] = test system: ATRA-resistant NB4-LR2; assay: Cell cycle arrest in human ATRA-resistant NB4-LR2 cells transfected with pLVX-shRXRalpha assessed as increase in cyclin B1 expression at 8 uM incubated for 12 hrs by Western blot analysis; format: functional, cell-based
[2] = test system: NB-4; assay: Induction of apoptosis in human NB4 cells assessed as necrotic cells at 10 uM incubated for 24 hrs by Annexin V-FITC/PI staining based flow cytometric analysis (reference value: 0.07 %); format: functional
[3] = test system: NB-4; assay: Induction of apoptosis in human NB4 cells assessed as early apoptotic cells at 10 uM incubated for 24 hrs by Annexin V-FITC/PI staining based flow cytometric analysis (reference value: 4.37 %); format: functional
[4] = test system: NB-4; assay: Induction of apoptosis in human NB4 cells assessed as late apoptotic cells at 10 uM incubated for 24 hrs by Annexin V-FITC/PI staining based flow cytometric analysis (reference value: 3.20 %); format: functional
[5] = Induction of apoptosis in human ATRA-resistant NB4-LR2 cells assessed as viable cells at 10 uM incubated for 24 hrs by Annexin V-FITC/PI staining based flow cytometric analysis (reference value: 87.30 %); format: functional; conditions: read-out: Activity
[6] = test system: ATRA-resistant NB4-LR2; assay: Induction of apoptosis in human ATRA-resistant NB4-LR2 cells transfected with pLVX-shRXRalpha assessed as increase in cleaved PARP expression at 8 uM incubated for 12 hrs by Western blot analysis; format: functional, cell-based
[7] = Induction of apoptosis in human ATRA-resistant NB4-LR2 cells assessed as necrotic cells at 10 uM incubated for 24 hrs by Annexin V-FITC/PI staining based flow cytometric analysis (reference value: 0.08 %); format: functional
[8] = Induction of apoptosis in human ATRA-resistant NB4-LR2 cells assessed as late apoptotic cells at 10 uM incubated for 24 hrs by Annexin V-FITC/PI staining based flow cytometric analysis (reference value: 7.23 %); format: functional
[9] = test system: ATRA-resistant NB4-LR2; assay: Cell cycle arrest in human ATRA-resistant NB4-LR2 cells transfected with pLVX-shRXRalpha assessed as increase in PLK1 expression at 8 uM incubated for 12 hrs by Western blot analysis; format: functional, cell-based
[10] = test system: NB-4; assay: Induction of apoptosis in human NB4 cells assessed as viable cells at 10 uM incubated for 24 hrs by Annexin V-FITC/PI staining based flow cytometric analysis (reference value: 92.36 %); format: functional; conditions: read-out: Activity
[11] = Induction of apoptosis in human ATRA-resistant NB4-LR2 cells assessed as early apoptotic cells at 10 uM incubated for 24 hrs by Annexin V-FITC/PI staining based flow cytometric analysis (reference value: 5.38 %); format: functional
[12] = Induction of apoptosis in human ATRA-resistant NB4-LR2 cells assessed as late apoptotic cells at 1 uM incubated for 24 hrs by Annexin V-FITC/PI staining based flow cytometric analysis (reference value: 5.62 %); format: functional
[13] = biological target: T1, Retinoic acid receptor alpha (Homo sapiens) (UniProt P10276); assay: Agonist activity at full length RARalpha LBD (unknown origin) transfected in HEK293T cells co-transfected with pG5luc reporter and Renilla-luc assessed as transactivation at 0.5 to 1 uM incubated for 12 hrs by luciferase reporter gene assay; format: cell-based; conditions: filed as agonist, dose 0.5-1 µM
T1 sequence (whole entry): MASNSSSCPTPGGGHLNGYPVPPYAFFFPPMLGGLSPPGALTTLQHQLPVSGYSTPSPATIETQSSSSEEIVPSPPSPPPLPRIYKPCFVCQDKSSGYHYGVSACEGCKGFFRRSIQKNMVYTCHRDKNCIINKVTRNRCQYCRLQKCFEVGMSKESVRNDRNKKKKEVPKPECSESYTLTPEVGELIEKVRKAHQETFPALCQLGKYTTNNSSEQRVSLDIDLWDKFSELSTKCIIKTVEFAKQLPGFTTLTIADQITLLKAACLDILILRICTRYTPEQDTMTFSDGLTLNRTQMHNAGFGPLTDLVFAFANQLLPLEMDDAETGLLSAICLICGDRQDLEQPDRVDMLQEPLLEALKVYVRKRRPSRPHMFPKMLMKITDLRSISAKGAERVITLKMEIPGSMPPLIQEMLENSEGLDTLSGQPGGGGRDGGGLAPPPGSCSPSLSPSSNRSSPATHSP

[14] = test system: NB-4; assay: Antiproliferative activity against human NB4 cells assessed as inhibition of cell viability at 0.125 uM incubated for 3 days by CCK8 assay relative to control; format: functional; conditions: NB-4, 72 h, time 3 day
[15] = Cell cycle arrest in human ATRA-resistant NB4-LR2 cells assessed as accumulation of cells at G2/M phase at 1 uM incubated for 12 hrs by DAPI staining based flow cytometric analysis (reference value: 28 %); format: functional
[16] = test system: NB-4; assay: Induction of apoptosis in human NB4 cells assessed as early apoptotic cells at 1 uM incubated for 24 hrs by Annexin V-FITC/PI staining based flow cytometric analysis (reference value: 1.77 %); format: functional
[17] = Induction of apoptosis in human ATRA-resistant NB4-LR2 cells assessed as early apoptotic cells at 1 uM incubated for 24 hrs by Annexin V-FITC/PI staining based flow cytometric analysis (reference value: 1.41 %); format: functional
[18] = Cell cycle arrest in human ATRA-resistant NB4-LR2 cells assessed as accumulation of cells at sub-G1 phase at 1 uM incubated for 12 hrs by DAPI staining based flow cytometric analysis (reference value: 18 %); format: functional
[19] = test system: NB-4; assay: Induction of apoptosis in human NB4 cells assessed as late apoptotic cells at 1 uM incubated for 24 hrs by Annexin V-FITC/PI staining based flow cytometric analysis (reference value: 2.23 %); format: functional
[20] = test system: NB-4; assay: Cell cycle arrest in human NB4 cells assessed as accumulation of cells at G0/G1 phase at 1 uM incubated for 12 hrs by DAPI staining based flow cytometric analysis (reference value: 51 %); format: functional
[21] = test system: NB-4; assay: Induction of cell differentiation in human NB4 cells assessed as NBT positive cells at 0.5 uM incubated for 6 days by Nitro Blue tetrazolium chloride based microscopic analysis (reference value: 0 %); format: functional; conditions: time 6 day
[22] = Cell cycle arrest in human ATRA-resistant NB4-LR2 cells assessed as accumulation of cells at S phase at 1 uM incubated for 12 hrs by DAPI staining based flow cytometric analysis (reference value: 12 %); format: functional
[23] = test system: NB-4; assay: Cell cycle arrest in human NB4 cells assessed as accumulation of cells at sub-G1 phase at 1 uM incubated for 12 hrs by DAPI staining based flow cytometric analysis (reference value: 2 %); format: functional
[24] = test system: NB-4; assay: Antiproliferative activity against human NB4 cells assessed as inhibition of cell viability incubated for 3 days by CCK8 assay; format: functional, cell-based; conditions: dose <= 3.5 µM, time 3.0 day
[25] = test system: NB-4; assay: Cell cycle arrest in human NB4 cells assessed as accumulation of cells at G2/M phase at 1 uM incubated for 12 hrs by DAPI staining based flow cytometric analysis (reference value: 26 %); format: functional
[26] = test system: NB-4; assay: Antiproliferative activity against human NB4 cells assessed as inhibition of cell viability up to 2 uM incubated for 3 days by CCK8 assay relative to control; format: functional; conditions: time 3 day
[27] = Cell cycle arrest in human ATRA-resistant NB4-LR2 cells assessed as accumulation of cells at G0/G1 phase at 1 uM incubated for 12 hrs by DAPI staining based flow cytometric analysis (reference value: 42 %); format: functional
[28] = test system: NB-4; assay: Cell cycle arrest in human NB4 cells assessed as accumulation of cells at S phase at 1 uM incubated for 12 hrs by DAPI staining based flow cytometric analysis (reference value: 20 %); format: functional
[29] = biological target: Retinoic acid receptor RXR-alpha (Homo sapiens, UniProt P19793); assay: Binding affinity to N-terminal His-tagged human RXRalpha LBD extracted from Escherichia coli BL21 (DE3) cells assessed as dissociation constant by fluorescence quenching assay
Retinoic acid receptor RXR-alpha, sequence (P19793 whole entry, the tested form may be a part): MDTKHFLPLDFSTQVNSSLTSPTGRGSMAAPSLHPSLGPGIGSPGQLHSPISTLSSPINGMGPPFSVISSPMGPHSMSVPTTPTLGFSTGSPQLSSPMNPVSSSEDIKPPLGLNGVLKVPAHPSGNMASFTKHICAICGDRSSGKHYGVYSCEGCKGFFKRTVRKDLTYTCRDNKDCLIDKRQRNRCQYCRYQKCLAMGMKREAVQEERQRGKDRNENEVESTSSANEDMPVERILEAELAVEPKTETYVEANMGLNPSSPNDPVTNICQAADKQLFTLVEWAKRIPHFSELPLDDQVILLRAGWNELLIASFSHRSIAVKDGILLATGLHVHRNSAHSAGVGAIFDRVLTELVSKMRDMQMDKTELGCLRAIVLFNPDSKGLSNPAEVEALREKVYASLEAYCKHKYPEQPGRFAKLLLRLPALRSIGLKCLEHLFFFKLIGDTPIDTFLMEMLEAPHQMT

[30] = test system: NB-4; assay: Induction of apoptosis in human NB4 cells assessed as late apoptotic cells at 5 uM incubated for 24 hrs by Annexin V-FITC/PI staining based flow cytometric analysis (reference value: 3.20 %); format: functional
[31] = test system: NB-4; assay: Induction of apoptosis in human NB4 cells assessed as necrotic cells at 5 uM incubated for 24 hrs by Annexin V-FITC/PI staining based flow cytometric analysis (reference value: 0.07 %); format: functional
[32] = test system: NB-4; assay: Induction of apoptosis in human NB4 cells assessed as early apoptotic cells at 5 uM incubated for 24 hrs by Annexin V-FITC/PI staining based flow cytometric analysis (reference value: 4.37 %); format: functional
[33] = Induction of apoptosis in human ATRA-resistant NB4-LR2 cells assessed as late apoptotic cells at 5 uM incubated for 24 hrs by Annexin V-FITC/PI staining based flow cytometric analysis (reference value: 7.23 %); format: functional
[34] = test system: NB-4; assay: Induction of apoptosis in human NB4 cells assessed as viable cells at 5 uM incubated for 24 hrs by Annexin V-FITC/PI staining based flow cytometric analysis (reference value: 92.36 %); format: functional; conditions: read-out: Activity
[35] = Induction of apoptosis in human ATRA-resistant NB4-LR2 cells assessed as early apoptotic cells at 5 uM incubated for 24 hrs by Annexin V-FITC/PI staining based flow cytometric analysis (reference value: 5.38 %); format: functional
[36] = Induction of apoptosis in human ATRA-resistant NB4-LR2 cells assessed as necrotic cells at 5 uM incubated for 24 hrs by Annexin V-FITC/PI staining based flow cytometric analysis (reference value: 0.08 %); format: functional
[37] = Induction of apoptosis in human ATRA-resistant NB4-LR2 cells assessed as viable cells at 5 uM incubated for 24 hrs by Annexin V-FITC/PI staining based flow cytometric analysis (reference value: 87.30 %); format: functional; conditions: read-out: Activity

For `COc1ccc(CC(=O)N/N=C/c2c(O)ccc3ccccc23)cc1`, the Activity [1] was “inactive”, the Activity [2] was 1.78% and the Activity [3] was 20.4%. The Activity [4] was 18.15%, the viability at 10 µM [5] was 63.5% and the Activity [6] was “inactive”. For the same compound, the Activity [7] was 0.77%, the Activity [8] was 18.38% and the Activity [9] was “inactive”. It also gave a viability at 10 µM [10] of 60.7% and an Activity [11] of 17.31%.

In the case of `Cc1cc2c(cc1C(=O)/C(Cl)=C/c1ccc(C(=O)O)cc1)C(C)(C)CCC2(C)C`, the Activity [12] is reported as 17.39%, the Activity [13] is reported as “Active; Highly Raralpha Selective Agonistic Activity Observed” and the inhibition at 0.125 µM [14] is reported as about 10%. The Activity [15] was 66%, the Activity [16] was 27.43% and the Activity [17] was 24.72%. For the same compound, the Activity [18] was 19%, the Activity [19] was 21.24% and the Activity [20] was 43%. It also gave an Activity [21] of 15%, an Activity [22] of 8% and an Activity [23] of 4%. For the same compound, the Activity [24] was “Dose-dependent-effect”, the Activity [25] was 41% and the “inhibition (INH)” value [26] was 100%. For the same compound, the Activity [27] was 7% and the Activity [28] was 12%.

With `Cc1cc2c(cc1-c1cc(/C=C/C(=O)O)ccc1O)C(C)(C)CCC2(C)C` the Kd [29] was 549 nM.

With `O=[N+]([O-])/C=C/c1cccc2ccccc12` the Activity [30] was 11.26%, the Activity [31] was 0.48% and the Activity [32] was 9.62%. The Activity [33] was 28.61%, the viability at 5 µM [34] was 78.6% and the Activity [35] was 28.83%. For the same compound, the Activity [36] was 0.29% and the viability at 5 µM [37] was 42.3%.
